The text below walks through data of US8367708B2, “Phenyl-isoxazol-3-ol derivative” (MSD K.K., priority 2006, dated 2013).

The target of this experiment is T1, human GPR120 (Homo sapiens, UniProt Q5NUL3).
T1 construct: expressed in transfected cells
T1 sequence (Q5NUL3 1-361): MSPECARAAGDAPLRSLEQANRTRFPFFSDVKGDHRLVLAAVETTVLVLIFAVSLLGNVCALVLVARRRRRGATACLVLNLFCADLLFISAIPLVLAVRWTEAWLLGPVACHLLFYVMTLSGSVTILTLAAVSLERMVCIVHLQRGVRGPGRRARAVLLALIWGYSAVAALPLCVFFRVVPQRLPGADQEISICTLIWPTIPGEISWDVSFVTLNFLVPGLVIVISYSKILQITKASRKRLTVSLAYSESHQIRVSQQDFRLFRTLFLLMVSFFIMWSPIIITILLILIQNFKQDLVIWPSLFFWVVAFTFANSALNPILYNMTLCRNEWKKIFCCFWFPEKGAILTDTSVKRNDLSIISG
Put plainly: Measurement of intracellular calcium concentration (FLIPR), GPR120 agonist action. The conditions noted are these: human GPR120 expression CHO cells, Fluo-4 AM, read-out: IC50 (GPR120 agonist action). The format is cell-based. For orientation: A change in cytosolic calcium serves as a functional read-out for many receptors and channels.

As for `CC(C)Nc1cccc(CCOc2ccc(-c3cc(O)no3)cc2)c1` [Example 41], the EC50 was 150 nM.

As for `Oc1cc(-c2cc(F)c(OCc3ccccc3Oc3ccccc3)c(F)c2)on1` [Example 26, 5-(3,5-difluoro-4-((2-phenoxybenzyl)oxy)phenyl)isoxazol-3-ol], the EC50 was determined as 300 nM.

Consider `CCOc1cccc(OCCc2ccc(-c3cc(O)no3)cc2)c1` [Example 36, 5-(4-(2-(3-ethoxyphenoxy)ethyl)phenyl)isoxazol-3-ol], for which the EC50 was 100 nM.

Take `COCc1cccc(CCOc2ccc(-c3cc(O)no3)cc2)c1` [Example 43, 5-(4-(2-(3-(methoxymethyl)phenyl)ethoxy)phenyl)isoxazol-3-ol]: the EC50 was determined as 280 nM.

For the compound `Oc1cc(-c2ccc(OCCc3cccc(Oc4ccccc4)c3)cc2)on1` [Example 38], the EC50 was determined as 250 nM.

With `Oc1cc(-c2ccc(OCc3ccccc3Oc3ccccc3)nc2)on1` [Example 9, 5-(6-((2-phenoxybenzyl)oxy)pyridin-3-yl)isoxazol-3-ol], the EC50 was 180 nM.

`Cc1oc(-c2ccccc2)nc1CCOc1ccc(-c2cc(O)no2)cc1` [Example 33, 5-(4-(2-(5-methyl-2-phenyl-1,3-oxazol-4-yl)ethoxy)phenyl)isoxazol-3-ol]: the EC50 came to 620 nM.

As to `Oc1cc(-c2ccc(COc3cccc(Oc4ccccc4)c3)cc2)on1` [Example 45, 5-(4-((3-phenoxyphenoxy)methyl)phenyl)isoxazol-3-ol], the EC50 worked out at 170 nM.

Consider `CC(C)Sc1ncccc1COc1ccc(-c2cc(O)no2)cc1` [Example 15, 5-(4-((2-(isopropylthio)pyridin-3-yl)methoxy)phenyl)isoxazol-3-ol], for which the EC50 worked out at 70 nM.

In the case of `Oc1cc(-c2ccc(OCc3cccc(Oc4ccccc4)n3)cc2)on1` [Example 3, 5-(4-((6-phenoxypyridin-2-yl)methoxy)phenyl)isoxazol-3-ol], the EC50 was found to be 180 nM.
